According to publication PMC4268884 (Nature communications, 2014):

Biological target: LRRK2 (Homo sapiens, UniProt Q5S007, G2019S)
Test: loss of constitutive phosphorylation in cells
Type: cell-based

LRRK2, sequence (Q5S007 whole entry G2019S): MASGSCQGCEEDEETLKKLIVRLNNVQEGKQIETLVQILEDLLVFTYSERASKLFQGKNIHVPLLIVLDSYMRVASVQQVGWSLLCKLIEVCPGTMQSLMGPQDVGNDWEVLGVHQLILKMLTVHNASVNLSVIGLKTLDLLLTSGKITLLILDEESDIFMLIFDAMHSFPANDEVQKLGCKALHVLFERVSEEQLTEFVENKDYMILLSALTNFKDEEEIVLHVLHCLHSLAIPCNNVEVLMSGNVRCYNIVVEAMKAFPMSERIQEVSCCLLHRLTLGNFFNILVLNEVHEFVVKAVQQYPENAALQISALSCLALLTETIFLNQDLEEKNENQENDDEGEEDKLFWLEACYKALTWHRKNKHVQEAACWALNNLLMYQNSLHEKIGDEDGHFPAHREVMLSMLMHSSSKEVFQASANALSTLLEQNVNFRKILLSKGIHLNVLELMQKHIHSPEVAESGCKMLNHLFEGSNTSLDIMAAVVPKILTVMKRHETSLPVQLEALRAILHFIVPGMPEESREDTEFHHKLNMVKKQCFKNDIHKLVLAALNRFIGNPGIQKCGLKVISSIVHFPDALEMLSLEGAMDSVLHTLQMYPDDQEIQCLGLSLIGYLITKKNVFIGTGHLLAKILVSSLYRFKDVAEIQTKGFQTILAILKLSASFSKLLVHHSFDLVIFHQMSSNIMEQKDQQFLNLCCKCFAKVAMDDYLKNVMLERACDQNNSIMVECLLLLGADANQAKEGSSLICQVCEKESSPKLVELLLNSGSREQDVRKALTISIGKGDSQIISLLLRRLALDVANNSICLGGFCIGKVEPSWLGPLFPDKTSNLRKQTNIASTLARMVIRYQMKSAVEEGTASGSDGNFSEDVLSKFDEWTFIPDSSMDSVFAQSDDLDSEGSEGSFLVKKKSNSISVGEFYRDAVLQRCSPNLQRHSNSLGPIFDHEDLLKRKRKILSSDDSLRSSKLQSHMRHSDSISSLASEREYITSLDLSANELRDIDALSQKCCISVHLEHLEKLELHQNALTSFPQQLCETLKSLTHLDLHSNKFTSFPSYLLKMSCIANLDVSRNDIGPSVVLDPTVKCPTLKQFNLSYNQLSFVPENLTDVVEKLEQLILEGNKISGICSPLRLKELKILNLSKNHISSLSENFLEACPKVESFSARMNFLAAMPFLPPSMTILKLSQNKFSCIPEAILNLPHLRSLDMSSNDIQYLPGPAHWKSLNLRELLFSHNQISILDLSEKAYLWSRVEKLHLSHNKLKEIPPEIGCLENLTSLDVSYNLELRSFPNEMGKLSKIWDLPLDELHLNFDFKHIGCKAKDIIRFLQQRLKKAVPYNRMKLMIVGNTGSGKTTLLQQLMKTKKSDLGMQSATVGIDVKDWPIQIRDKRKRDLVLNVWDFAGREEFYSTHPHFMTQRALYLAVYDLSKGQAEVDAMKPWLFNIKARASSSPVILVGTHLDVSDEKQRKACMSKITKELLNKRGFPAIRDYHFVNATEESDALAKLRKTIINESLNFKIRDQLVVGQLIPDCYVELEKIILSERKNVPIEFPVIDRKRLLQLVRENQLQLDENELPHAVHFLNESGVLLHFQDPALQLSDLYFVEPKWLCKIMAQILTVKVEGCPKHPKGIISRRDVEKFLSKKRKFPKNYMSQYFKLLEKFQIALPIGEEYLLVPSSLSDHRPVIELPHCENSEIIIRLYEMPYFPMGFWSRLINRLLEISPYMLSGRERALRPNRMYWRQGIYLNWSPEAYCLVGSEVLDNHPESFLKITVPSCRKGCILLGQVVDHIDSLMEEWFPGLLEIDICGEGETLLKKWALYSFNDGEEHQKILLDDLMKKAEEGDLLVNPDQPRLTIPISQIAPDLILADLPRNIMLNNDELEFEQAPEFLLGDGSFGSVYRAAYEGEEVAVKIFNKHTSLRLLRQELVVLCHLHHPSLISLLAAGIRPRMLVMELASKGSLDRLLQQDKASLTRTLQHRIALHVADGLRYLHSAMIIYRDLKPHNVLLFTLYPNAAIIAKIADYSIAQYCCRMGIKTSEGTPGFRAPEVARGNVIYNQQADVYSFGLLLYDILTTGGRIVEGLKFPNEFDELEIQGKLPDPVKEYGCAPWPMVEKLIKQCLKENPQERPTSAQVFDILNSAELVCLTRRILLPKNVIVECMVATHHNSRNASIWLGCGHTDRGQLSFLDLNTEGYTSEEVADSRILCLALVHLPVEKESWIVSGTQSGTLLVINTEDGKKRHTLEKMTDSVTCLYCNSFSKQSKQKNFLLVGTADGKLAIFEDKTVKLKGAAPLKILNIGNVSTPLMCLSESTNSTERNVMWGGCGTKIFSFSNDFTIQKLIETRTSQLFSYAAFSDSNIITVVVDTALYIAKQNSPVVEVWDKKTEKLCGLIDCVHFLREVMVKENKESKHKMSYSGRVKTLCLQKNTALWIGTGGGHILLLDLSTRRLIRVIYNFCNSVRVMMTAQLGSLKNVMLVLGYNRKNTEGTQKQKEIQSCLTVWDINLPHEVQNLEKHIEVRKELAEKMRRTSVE

## COc1cc(C(=O)N2CCC(N3CCN(C)CC3)CC2)ccc1Nc1ncc2c(n1)N(C)c1ccccc1C(=O)N2C [LRRK2-IN1]
  loss of constitutive phosphorylation in cells: The pathogenic G2019S mutation in the kinase domain is phosphorylated and sensitive to the effects of LRRK2-IN1
